This is an account of results in patent US9034352B2, “Microbicide combinations containing silver” (Rohm and Haas Company, priority 2006, dated 2015).

Values joined by “and” are separate entries in the source; they are usually repeats but may differ in a detail not shown here. Equal entries are not always repeated. Where two headings read alike, the source gives them in different places.

Holding throughout (experiment): Synergy test, high resolution MIC microtiter plate assay
Format in all cases: cell-based

For assay [1], the system named is Pseudomonas aeruginosa (P. aeruginosa—ATCC #15442). Conditions: for MIC of component acting alone (end point): P. aeruginosa, Ag-polymer on active silver ion basis. From the text: (§1) One measure of synergism is the industrially accepted method described by Kull, F. C.; Eisman, P. C.; Sylwestrowicz, H. D. and Mayer, R. L., in Applied Microbiology 9:538-541 (1961), using the ratio determined by the formula: Ca/CA+Cb/CB=Synergy Index (“SI”) wherein:
(§2) CA=concentration of compound A (first component) in ppm, acting alone, which produced an end point (MIC of Compound A).
(§3) Ca=concentration of compound A in ppm, in the mixture, which produced an end point.
(§4) CB=concentration of compound B (second component) in ppm, acting alone, which produced an end point (MIC of Compound B).
(§5) Cb=concentration of compound B in ppm, in the mixture, which produced an end point.
(§6) When the sum of Ca/CA and Cb/CB is greater than one, antagonism is indicated. […] The lower the SI, the greater the synergy shown by that particular mixture. The minimum inhibitory concentration (MIC) of an antimicrobial compound is the lowest concentration tested under a specific set of conditions that prevents the growth of added microorganisms.
(§7) Synergy tests were conducted using standard microtiter plate assays with media designed for optimal growth of the test microorganism. Soybean Casein Digest Broth (Tryptic Soy Broth, TSB medium) or minimal salt medium supplemented with 0.2% glucose and 0.1% yeast extract (M9GY medium) was used for testing bacteria; Potato Dextrose Broth (PDB medium) was used for testing yeast and mold. In this method, a wide range of combinations of microbicides was tested by conducting high resolution MIC assays in the presence of various concentrations of the biocides. High resolution MICs were determined by adding varying amounts of microbicide to one column of a microtitre plate and doing subsequent ten-fold dilutions using an automated liquid handling system.
(§8) The bacteria were used at a concentration of about 1-6×10^6 bacteria per mL and the yeast and mold at 1-5×10^5 fungi per mL. These microorganisms are representative of natural contaminants in many consumer and industrial applications. […] (yeast and mold) or 30° C. (bacteria).

Assay [2] has as its system Aspergillus niger (A. niger—ATCC 16404). Conditions: for MIC of component acting alone (end point): A. niger, Ag-polymer on active silver ion basis; for MIC: Aspergillus niger, read-out: MIC of component acting alone (end point).
Source text: as §1, §2, §3, §4, §5, §6, §7, §8

Assay [3] deals with Staphylococcus aureus (S. aureus—ATCC #6538). Conditions: for MIC of component acting alone (end point): S. aureus, Ag-polymer on active silver ion basis; for MIC: Staphylococcus aureus, read-out: MIC of component acting alone (end point).
Source text: as §1, §2, §3, §4, §5, §6, §7, §8

The test system of assay [4] is Esherichia coli (E. coli—ATCC #8739). Conditions: Ag-polymer on active silver ion basis.
Source text: as §1, §2, §3, §4, §5, §6, §7
(§9) […]. The bacteria were used at a concentration of about 1-6×10^6 bacteria per mL and the yeast and mold at 1-5×10^5 fungi per mL. These microorganisms are representative of natural contaminants in many consumer and industrial applications. […] (yeast and mold) or 30° C. (bacteria).
(§10) The end point values in the following examples for the silver-polymer complex are reported on an active silver ion basis.

Assay [5] has as its system Candida albicans (C. albicans—ATCC 10231). Conditions: for MIC of component acting alone (end point): C. albicans, Ag-polymer on active silver ion basis; for MIC: Candida albicans, read-out: MIC of component acting alone (end point); for Ca (Component A in combination): Hydrogen Peroxide combined with Ag-polymer formulation.
Source text: as §1, §2, §3, §4, §5, §6, §7, §9, §10

The mark [6] stands for this setting: Table 13, 3-Iodo-2-propynyl butylcarbamate alone, contact time 24 hour.
The mark [7] stands for this setting: Table 13, 3-Iodo-2-propynyl butylcarbamate alone, contact time 48 hour.
Where [8] appears, read: Sodium hypochlorite (as Free Cl2) combined with Ag-polymer formulation, contact time 48 hour.
The mark [9] stands for this setting: Table 10, Sodium hypochlorite alone, as Free Cl2, contact time 24 hour.
Setting [10] is: Table 10, Sodium hypochlorite alone, as Free Cl2, contact time 48 hour.
Setting [11] is: Table 11, Glutaraldehyde alone, contact time 24 hour.
[12] abbreviates: Table 11, Glutaraldehyde alone, contact time 48 hour.
The mark [13] stands for this setting: 5-Chloro-2-(2,4-dichlorophenoxy)phenol combined with Ag-polymer formulation, contact time 48 hour.
[14] abbreviates: Table 12, 5-Chloro-2-(2,4-dichlorophenoxy)phenol alone, contact time 24 hour.
The mark [15] stands for this setting: Table 12, 5-Chloro-2-(2,4-dichlorophenoxy)phenol alone, contact time 48 hour.
The mark [16] stands for this setting: Hydrogen Peroxide combined with Ag-polymer formulation, contact time 24 hour.
Where [17] appears, read: Table 9, Hydrogen Peroxide alone, contact time 24 hour.
Setting [18] is: Table 9, Hydrogen Peroxide alone, contact time 48 hour.

On to `CCCCNC(=O)OCC#CI` [3-Iodo-2-propynyl butylcarbamate], for which the “Ca (Component A in combination)” value in assay [1] (3-Iodo-2-propynyl butylcarbamate combined with Ag-polymer formulation, contact time 24 hour) worked out at 850; in assay [1] (3-Iodo-2-propynyl butylcarbamate combined with Ag-polymer formulation, contact time 48 hour) it was 1050. The “Ca (Component A alone)” value is 1050 in assay [1] (setting [6]); 1300 in assay [1] (setting [7]); 0.4 in assay [2] (Table 13, 3-Iodo-2-propynyl butylcarbamate alone, contact time 3 days); 0.8 in assay [2] (Table 13, 3-Iodo-2-propynyl butylcarbamate alone, contact time 7 days); 14 in assay [3] (setting [6]); 14 in assay [3] (setting [7]).

Take “C9-C15 alkyltolylmethyltrimethylammonium chloride [reference compound]”: the “MIC of component acting alone (end point)” value (from here on “MIC … (end point)”) in assay [1] (contact time 24 hour) is recorded as 19.4 ppm; in assay [1] (contact time 48 hour), 19.4 ppm; in assay [2] (contact time 7 days), 493 ppm; in assay [3] (contact time 24 hour), 69 ppm; in assay [4] (contact time 24 hour) it was 6 ppm; in assay [4] (contact time 48 hour) it was 6 ppm. Moreover, in assay [5] (contact time 24 hour), the “MIC … (end point)” value is 98 ppm.

As for `OCl` [Sodium hypochlorite], the “Ca (Component A in combination)” value in assay [1] (Sodium hypochlorite (as Free Cl2) combined with Ag-polymer formulation, contact time 24 hour) worked out at 0.5; in assay [1] (setting [8]), 0.7; in assay [3] (setting [8]), 0.5. Besides, the “Ca (Component A alone)” value was 0.7 in assay [1] (setting [9]); 0.9 in assay [1] (setting [10]); 26 in assay [2] (Table 10, Sodium hypochlorite alone, as Free Cl2, contact time 3 days); 35 in assay [2] (Table 10, Sodium hypochlorite alone, as Free Cl2, contact time 7 days); 0.4 in assay [3] (setting [9]); 0.7 in assay [3] (setting [10]). Besides, the “Ca (Component A alone)” value in assay [5] (setting [9]) is 0.9; in assay [5] (setting [10]), 2.

As to `O=CCCCC=O` [Glutaraldehyde], the “Ca (Component A in combination)” value in assay [1] (Glutaraldehyde combined with Ag-polymer formulation, contact time 24 hour) is on record as 13; in assay [1] (Glutaraldehyde combined with Ag-polymer formulation, contact time 48 hour), 16; in assay [2] (Glutaraldehyde combined with Ag-polymer formulation, contact time 3 days) it was 425; in assay [2] (Glutaraldehyde combined with Ag-polymer formulation, contact time 7 days), 525. The “Ca (Component A alone)” value in assay [1] (setting [11]) stood at 16; in assay [1] (setting [12]) it was 20; in assay [2] (Table 11, Glutaraldehyde alone, contact time 3 days), 525; in assay [2] (Table 11, Glutaraldehyde alone, contact time 7 days), 650; in assay [3] (setting [11]) it was 13; in assay [3] (setting [12]), 20. Besides, the “Ca (Component A alone)” value in assay [5] (setting [11]) and in assay [5] (setting [12]) was 88 in each case.

On to `O=c1[nH]sc2ccccc12` [Benzisothiazolin-3-one, reference compound], for which the “MIC … (end point)” value is 4 ppm in assay [1] (contact time 24 hour); 7 ppm in assay [1] (contact time 48 hour); 43 ppm in assay [2] (contact time 3 days); 53 ppm in assay [2] (contact time 7 days); 20 ppm in assay [3] (contact time 24 hour); 20 ppm in assay [3] (contact time 48 hour). For the same compound, the “MIC … (end point)” value in assay [5] (contact time 24 hour) and in assay [5] (contact time 48 hour) was 30 ppm throughout.

In the case of `CC(C)(C)CC(C)(C)c1ccc(OCCOCC[N+](C)(C)Cc2ccccc2)cc1.[Cl-]` [diisobutylphenoxyethoxyethyl dimethylbenzylammonium chloride, reference compound], the “MIC … (end point)” value in assay [2] (contact time 7 days) is 40.3 ppm; in assay [3] (contact time 24 hour), 28.8 ppm; in assay [3] (contact time 48 hour) it was 40.3 ppm; in assay [4] (contact time 24 hour), 19.4 ppm; in assay [5] (contact time 48 hour), 28.8 ppm.

Turning to `Oc1cc(Cl)ccc1Oc1ccc(Cl)cc1Cl` [5-Chloro-2-(2,4-dichlorophenoxy)phenol], the “Ca (Component A in combination)” value was 20 in assay [1] (5-Chloro-2-(2,4-dichlorophenoxy)phenol combined with Ag-polymer formulation, contact time 24 hour); 30 and 20 in assay [1] (setting [13]); 7 in assay [2] (5-Chloro-2-(2,4-dichlorophenoxy)phenol combined with Ag-polymer formulation, contact time 3 days); 9 and 7 in assay [3] (setting [13]). The “Ca (Component A alone)” value is 30 in assay [1] (setting [14]); 43 in assay [1] (setting [15]); 9 in assay [2] (Table 12, 5-Chloro-2-(2,4-dichlorophenoxy)phenol alone, contact time 3 days); 30 in assay [2] (Table 12, 5-Chloro-2-(2,4-dichlorophenoxy)phenol alone, contact time 7 days); 9 in assay [3] (setting [14]); 11 in assay [3] (setting [15]).

For the compound `Cn1sccc1=O` [MIT, 2-methyl-4-isothiazolin-3-one, reference compound], the MIC (commonly the least concentration at which growth counts as inhibited) came out at 24.7 µg/mL in assay [1] (Pseudomonas aeruginosa, ATCC15442, 48 h, read-out: MIC of component acting alone (end point)); 493 µg/mL in assay [2] (ATCC16404, 72 h); 603 µg/mL in assay [2] (ATCC16404, 168 h); 34.5 µg/mL in assay [3] (ATCC6538, 24 h); 34.5 µg/mL in assay [3] (ATCC6538, 48 h); 288 µg/mL in assay [5] (ATCC10231, 24 h). For the same compound, in assay [5] (ATCC10231, 48 h), the MIC stood at 403 µg/mL.

As for `OO` [Hydrogen Peroxide], the “Ca (Component A in combination)” value was 255 in assay [1] (setting [16]); 390 and 315 and 255 in assay [1] (Hydrogen Peroxide combined with Ag-polymer formulation, contact time 48 hour); 1300 and 1050 in assay [2] (Hydrogen Peroxide combined with Ag-polymer formulation, contact time 7 days); 53 and 39 in assay [3] (setting [16]); 105 and 85 in assay [5] (contact time 24 hour); 85 in assay [5] (contact time 48 hour). In addition, the “Ca (Component A alone)” value in assay [1] (setting [17]) came out at 315; in assay [1] (setting [18]) it was 525; in assay [2] (Table 9, Hydrogen Peroxide alone, contact time 3 days), 1300; in assay [2] (Table 9, Hydrogen Peroxide alone, contact time 7 days), 1750; in assay [3] (setting [17]), 66; in assay [3] (setting [18]), 180. The “Ca (Component A alone)” value in assay [5] (setting [17]) and in assay [5] (setting [18]) was 130 each time.
